Laboratory results reported in ChEMBL document CHEMBL2311336 (Bioorg Med Chem Lett, 2013).

What follows are compounds tested against E3 ubiquitin-protein ligase Mdm2 (Homo sapiens, UniProt Q00987, L33E) (assay: Inhibition of human His-tagged p53 (1 to 132 amino acid residues)/GST-tagged MDM2 L33E mutant (25 to 108 amino acid residues) interaction by HTRF assay).
Sequence of E3 ubiquitin-protein ligase Mdm2 (Q00987 whole entry L33E, the tested form may be a part): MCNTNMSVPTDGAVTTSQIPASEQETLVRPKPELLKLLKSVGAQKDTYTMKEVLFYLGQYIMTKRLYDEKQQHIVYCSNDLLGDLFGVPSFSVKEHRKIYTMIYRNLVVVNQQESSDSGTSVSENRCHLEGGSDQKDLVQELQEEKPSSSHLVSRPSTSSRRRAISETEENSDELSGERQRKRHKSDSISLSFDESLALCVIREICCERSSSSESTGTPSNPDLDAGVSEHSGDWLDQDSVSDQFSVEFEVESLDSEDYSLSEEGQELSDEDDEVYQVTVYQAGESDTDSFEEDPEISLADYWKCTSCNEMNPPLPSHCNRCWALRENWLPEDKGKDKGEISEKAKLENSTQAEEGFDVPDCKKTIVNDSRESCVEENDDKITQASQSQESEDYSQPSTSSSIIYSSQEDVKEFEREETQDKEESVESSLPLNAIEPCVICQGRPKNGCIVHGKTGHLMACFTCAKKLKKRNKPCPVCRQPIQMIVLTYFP

| IC50 | SMILES |
| --- | --- |
| 140 nM | CC(C)C1=C(C(=O)N2CC[C@H]2C(=O)N(C)C)SC2=N[C@@](C)(c3ccc(Cl)cc3)[C@@H](c3ccc(Cl)cc3)N21 |

Each compound was assayed against Tumour suppressor p53/oncoprotein Mdm2 (Homo sapiens, UniProt Q00987) (assay: Inhibition of human His-tagged p53/GST-tagged MDM2 interaction after 60 mins by chemiluminescence assay).
Sequence of Tumour suppressor p53/oncoprotein Mdm2 (P04637 whole entry): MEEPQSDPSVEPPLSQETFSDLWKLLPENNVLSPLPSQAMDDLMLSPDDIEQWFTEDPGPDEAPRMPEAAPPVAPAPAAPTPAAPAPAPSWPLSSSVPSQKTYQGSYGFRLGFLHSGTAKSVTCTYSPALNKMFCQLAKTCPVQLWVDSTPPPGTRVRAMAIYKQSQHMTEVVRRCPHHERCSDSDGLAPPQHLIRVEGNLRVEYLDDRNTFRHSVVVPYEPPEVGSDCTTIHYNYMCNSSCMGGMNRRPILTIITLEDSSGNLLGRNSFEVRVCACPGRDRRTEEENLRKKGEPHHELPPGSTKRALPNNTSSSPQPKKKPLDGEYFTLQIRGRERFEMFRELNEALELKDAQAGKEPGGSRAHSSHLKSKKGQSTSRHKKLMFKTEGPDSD
Sequence of Tumour suppressor p53/oncoprotein Mdm2 (Q00987 whole entry): as the sequence (Q00987 whole entry L33E, the tested form may be a part) above, with E33L counted along it
Type: protein assay

| SMILES | IC50 |
| --- | --- |
| CNC(=O)C1=C(C(C)C)N2C(=NC(C)(c3ccc(Cl)cc3)C2c2ccc(Cl)cc2)S1 (racemic) | 1100 nM |
| CC(C)C1=C(C(=O)N(C)C)SC2=N[C@@](C)(c3ccc(Cl)cc3)[C@@H](c3ccc(Cl)cc3)N21 | 26 nM |
| CC(C)C1=C(C(=O)N2CCC[C@H]2C(=O)N2CCOCC2)SC2=N[C@@](C)(c3ccc(Cl)cc3)[C@@H](c3ccc(Cl)cc3)N21 | 26 nM |
| CC(C)C1=C(C(=O)N2CCC[C@H]2C(=O)N2C[C@@H](C)N[C@@H](C)C2)SC2=N[C@@](C)(c3ccc(Cl)cc3)[C@@H](c3ccc(Cl)cc3)N21 | 37 nM |
| CC(C)C1=C(C(=O)N(C)C)SC2=NC(C)(c3ccc(Cl)cc3)C(c3ccc(Cl)cc3)N21 (racemic) | 42 nM |
| CC(C)C1=C(C(=O)N2CCCC2)SC2=NC(C)(c3ccc(Cl)cc3)C(c3ccc(Cl)cc3)N21 (racemic) | 200 nM |
| CC(C)C1=C(C(=O)N2CCNC(=O)C2)SC2=N[C@@](C)(c3ccc(Cl)cc3)[C@@H](c3ccc(Cl)cc3)N21 | 92 nM |
| CC(C)C1=C(C(=O)N2CCC[C@H]2C(=O)N2CCNC(=O)C2)SC2=N[C@@](C)(c3ccc(Cl)cc3)[C@@H](c3ccc(Cl)cc3)N21 | 79 nM |

Further lines, results first:

| IC50 | SMILES |
| --- | --- |
| 1500 nM | CC(C)C1=C(C(=O)N2CCNC(=O)C2)SC2=N[C@](C)(c3ccc(Cl)cc3)[C@H](c3ccc(Cl)cc3)N21 |
| 940 nM | CC(C)C1=C(C(=O)N2CNC(=O)C2)SC2=NC(C)(c3ccc(Cl)cc3)C(c3ccc(Cl)cc3)N21 (racemic) |
| 780 nM | CC(C)C1=C(C(N)=O)SC2=NC(C)(c3ccc(Cl)cc3)C(c3ccc(Cl)cc3)N21 (racemic) |
| 410 nM | CC(C)C1=C(C(=O)N2CCNC(=O)C2)SC2=NC(C)(c3ccc(Cl)cc3)C(c3ccc(Cl)cc3)N21 (racemic) |
| 170 nM | CC(C)C1=C(C(=O)N2CCCC[C@H]2C(=O)N(C)C)SC2=NC(C)(c3ccc(Cl)cc3)C(c3ccc(Cl)cc3)N21 (mixture of isomers) |
| 66 nM | CC(=O)N1CCN(C(=O)[C@@H]2CCCN2C(=O)C2=C(C(C)C)N3C(=N[C@@](C)(c4ccc(Cl)cc4)[C@H]3c3ccc(Cl)cc3)S2)CC1 |
| 46 nM | COCCN(C)C(=O)[C@@H]1CCCN1C(=O)C1=C(C(C)C)N2C(=N[C@@](C)(c3ccc(Cl)cc3)[C@H]2c2ccc(Cl)cc2)S1 |
| 23 nM | CC(C)C1=C(C(=O)N2CCC[C@H]2C(=O)N2CCN(C)CC2)SC2=N[C@@](C)(c3ccc(Cl)cc3)[C@@H](c3ccc(Cl)cc3)N21 |
